Data on 1 compound can be found in publication PMC4741889, “Ligand-based chemoinformatic discovery of a novel small molecule inhibitor targeting CDC25 dual specificity phosphatases and displaying in vitro efficacy against melanoma cells” (Oncotarget, 2015).

For test [1], the system named is CDC25A protein levels. Briefly: Western blotting of CDC25A protein levels in A2058 cells. The class given is cell-based, human. The conditions noted are these: A2058, 100 μM, 2-16 h. On the procedure: To better investigate the effect of this inhibitor at the molecular level, we evaluated if the treatment of A2058 cells with 7 affected also the protein levels of the three CDC25 forms. […] On the other hand, the protein levels of CDC25B were unaffected by treatment of A2058 cells with 7 up to 16 h.
A2058 cells were seeded into 6-well-plates (3 × 10^5 cells/plate) for 24 h at 37°C and then treated at different times with 100 μM compound 7 or 0.5% DMSO. After treatment, cells were harvested, washed with PBS and then lysed in ice-cold modified radio immunoprecipitation assay (RIPA) buffer (50 mM Tris-HCl, pH 7.4, 150 mM NaCl, 1% Nonidet P-40, 0.25% sodium deoxycholate, 1 mM Na3VO4 and 1 mM NaF), supplemented with protease inhibitors and incubated for 30 min on ice. The supernatant obtained after centrifugation at 12,000 rpm for 30 min at 4°C constituted the total protein extract. The protein concentration was determined by the method of Bradford, using bovine serum albumin (BSA) as standard. Equal amounts of total protein extracts were used for Western blot analysis. […] Membranes were then analysed by an enhanced chemiluminescence reaction, using Super Signal West Pico kit (Pierce) according to manufacturer's instruction; signals were visualized by autoradiography.

The target of test [2] is T1, CDC25B (Homo sapiens, UniProt P30305).
T1 construct: Recombinant forms of the catalytic domains of CDC25A, -B and -C were obtained through the vectors pET28a-CDC25A-cd, pET28a-CDC25B-cd and pET28a-CDC25C-cd; made in house
T1 sequence (P30305 431-538 limits assumed): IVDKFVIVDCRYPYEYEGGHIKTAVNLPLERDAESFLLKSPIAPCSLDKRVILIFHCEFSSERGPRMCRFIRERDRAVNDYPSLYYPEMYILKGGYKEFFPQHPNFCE
In words: Residual phosphatase activity of recombinant CDC25B, fluorimetric OMFP assay. The class given is biochemical. The conditions noted are these: 10 nM CDC25B, 25 μM OMFP, read-out: CDC25B residual activity (%) in the presence of [inhibitor].

For test [3], the system named is A2058 cells. Briefly: Mitochondrial membrane potential (R123), A2058 cells. The class given is cell-based, human. The conditions noted are these: A2058, 100 μM, 24 h up to 72 h. The procedure:
Mitochondria represent the primary source of ROS, as well the target of ROS action, and therefore, compound 7 could affect their functionality in melanoma cells. […] Proteins belonging to the B-cell lymphoma-2 (Bcl-2) family are involved in the modulation of the mitochondrial functionality. Therefore, we have evaluated the levels of the anti-apoptotic protein Bcl-2, as well as that of the pro-apoptotic Bcl-2-associated X protein (Bax), after incubation with 7 (Figure 10B). […] To further investigate the occurrence of a mitochondrial-mediated apoptosis induced by 7, the caspase-9 activity was assayed. […] The effect of compound 7 was investigated also in SAN cells and the overall results were similar to those observed in A2058 (Supplementary Figure S6).
Mitochondrial membrane potential was evaluated by measuring the incorporation of the fluorescent probe R123, essentially as previously described. Briefly, cells were seeded into 6-well-plates (3 × 10^5 cells/well) for 24 h at 37°C, and then incubated at 37°C for 1 h in the presence of 5 μM R123, washed twice with PBS, and placed in medium containing 100 μM compound 7 or 0.5% DMSO. […] The fluorescence of cell-associated R123 was detected in the above-mentioned fluorescence spectrophotometer, using excitation and emission wavelengths of 490 and 520 nm, respectively; both excitation and emission slits were set at 10 nm.

Test [4] deals with caspase-3 activity. Briefly: Caspase-3 enzymatic activity in SAN cells. The conditions noted are these: 100 μM. The class given is cell-based, human. The source says: PI incorporation followed by flow cytometric analysis was used to detect the effect of 7 on the number of nuclei with a sub-diploid content, a typical hallmark of apoptosis. A time-dependent increase of apoptosis was evident in both A2058 and SAN cells and in particular, the effect of 7 on cell death program was already evident after 24-h treatment (Figure 7). […] To further investigate on the capacity of 7 to induce apoptosis, the enzymatic activity of caspase-3, the final effector of apoptotic program, was monitored.
To estimate caspase-3 and caspase-9 activity during the treatment with compound 7, the respective enzymatic activities were measured by using caspase-3 and -9 fluorimetric assay kits, according to the manufacturer's protocol, essentially as previously described. Briefly, cells were seeded into 75 cm^2 plates (2 × 10^6 cells/plate) for 24 h at 37°C and then treated with 100 μM 7 or 0.5% DMSO. At the end of each incubation, cells were collected, washed with PBS, and finally lysed at 4°C in the cell lysis buffer. Cell lysates were incubated with 50 μM DEVD-AFC or LEHD-AFC substrates at 37°C for 2 h, to detect caspase-3 or caspase-9 activity, respectively, using a Cary Eclipse fluorescence spectrophotometer (Varian). Excitation and emission wavelengths were set at 400 nm and 505 nm, respectively; both excitation and emission slits were set at 10 nm.

In the case of `O=C(O)C1CCCCC1c1c2ccc(=O)cc-2oc2cc(O)ccc12` (centres unmarked) [Compound 7, 2-(6-hydroxy-3-oxo-3H-xanthen-9-yl)cyclohexanecarboxylic acid], in test [1], the CDC25A protein levels result was “early reduction of the CDC25A protein levels up to 4 h”. The remaining activity at 0.2 µM in test [2] (0.2 μM inhibitor) is 44%. The remaining activity at 1 µM in test [2] (1 μM inhibitor) is 1%. Also, in test [3], the “mitochondrial membrane potential (R123 fluorescence)” value is “reduction of the mitochondrial membrane potential”. Also, in test [4], the caspase-3 enzymatic activity result is “significant increase of the enzymatic activity of caspase-3”.
